The results in this text go back to patent publication US8535904B2, “Method of enhancing skin barrier function” (Pola Chemical Industries Inc., priority 2006, dated 2013).

Test [1] has as its system normal human epidermal keratinocytes (NHEK). The test is described as follows: Calcium ion permeation through cultured normal human epidermal keratinocyte layer (Transwell, Arsenazo III quantification). The format is cell-based. To be noted: 10^-1% test substance; calcium loaded concentration 5 mM; control = test substance concentration 0; FIG. 5/FIG. 6.
Test [2] has the same test system. The test is described as follows: TER (transepithelial electrical resistance) of cultured normal human epidermal keratinocyte layer. The class given is cell-based. As to conditions: 10^-4 v/v % in culture medium; TER measured at addition and 1, 2, 3, 4 days later; FIG. 7. Here is the method: Frozen normal human epidermal keratinocytes (NHEK) (manufactured by Kurabo Industries Ltd.) were thawed and cultured in a 0.15 mM Ca-containing culture medium (Humedia-KG2; manufactured by Kurabo Industries Ltd.) at 37° C. in […] atmosphere. A Transwell manufactured by Corning Incorporated (diameter 12 mm, polyethylene terephthalate, 0.4 μm pore) was placed on a Millicell tissue culture plate (manufactured by Millipore), and the above-mentioned culture medium was added in amounts of 0.5 ml to the upper layer and 1.5 ml to the lower layer. Then, the normal human epidermal keratinocytes (NHEK) were inoculated at 1×10^5/cm^2 and cultured for additional 72 hours. […] Thereafter, the medium was exchanged for a culture medium containing 10^−4 v/v % α,ε-bis(γ-N-lauroylglutamyl)lysine (Pellicer L-30 (registered trademark) (hereinafter, referred to as Pellicer); manufactured by Asahi Kasei Corporation), and TERs were measured. The culture was further continued, and one, two, three, and four days later, TERs were measured.
Frozen normal human epidermal keratinocytes (NHEK) (manufactured by Kurabo Industries Ltd.) were thawed and cultured in a 0.15 mM Ca-containing culture medium (Humedia-KG2; manufactured by Kurabo Industries Ltd.) at 37° C. in 50% carbon dioxide atmosphere. […] The culture was further continued, and one, two, three, and four days later, TERs were measured.

For the compound `N[C@@H](CCCCNC(=O)CC[C@H](N)C(=O)O)C(=O)O` [ε,γ-glutamyl lysine], the “inhibition of the transference of a calcium ion (calcium ion permeation ratio vs control)” value in test [1] is listed as “had ability to inhibit the transference of the calcium ion”.
Same read-out and setting: then `C[N+](C)(C)C[C@H](O)CC(=O)[O-]` [L-carnitine, reference compound], with “had ability to inhibit the transference of a calcium ion”.
`CCCCCCCCCCCC(=O)N[C@@H](CCC(=O)NCCCC[C@H](NC(=O)CC[C@H](NC(=O)CCCCCCCCCCC)C(=O)O)C(=O)O)C(=O)O` [Pellicer, α,ε-bis(γ-N-lauroylglutamyl)lysine]: the “TER (resistance value) compared with the control” value in test [2] was “increased resistance value compared with the control”.
